Reference: PubChem BioAssay (NCI)
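1) Cells in 96-well plates. 2) Compound, 48 h, 5 concentrations. 3) Linear interpolation between surrounding doses. 4) Unreached endpoint = highest concentration. GI50 marks 50% less growth. TGI denotes the concentration required for complete inhibition of growth.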

Legend:
Test in all cases: DTP human tumour cell line panel, 48 h
[1] = test system: LXFL 529 NSCLC
[2] = test system: SNB-19 CNS
[3] = test system: HCT-15 colon
[4] = test system: OVCAR-5 ovarian
[5] = test system: KM20L2 colon
[6] = test system: SNB-78 CNS
[7] = test system: CAKI-1 renal
[8] = test system: UACC-257 melanoma
[9] = test system: DLD-1 colon
[10] = test system: T-47D breast

Compound	TGI [1]	TGI [2]	TGI [3]	TGI [4]	TGI [5]	TGI [6]	TGI [7]	TGI [8]	TGI [9]	GI50 [1]	GI50 [2]	GI50 [5]	GI50 [6]	GI50 [9]	TGI [10]
N#C/C(=C/c1ccc2c(c1)OCO2)C(=O)c1ccccc1	> 100 µM	> 100 µM	> 100 µM	> 100 µM	> 100 µM	> 100 µM	> 100 µM	> 100 µM	> 100 µM	–	–	–	–	–	–
CC(=O)[O-].Cn1ccnc1CNCc1nccn1C.[Cu+2].[O-][Cl+3]([O-])([O-])[O-]	> 100 µM	> 100 µM	–	–	> 100 µM	> 100 µM	–	–	> 100 µM	> 100 µM	> 100 µM	> 100 µM	> 100 µM	> 100 µM	–
c1ccc2c3c([nH]c2c1)[C@H]1C2CCCCN2CN1CC3 (stereo not given in full)	> 100 µM	> 100 µM	> 100 µM	> 100 µM	> 100 µM	> 100 µM	> 100 µM	> 100 µM	> 100 µM	–	–	–	–	–	–
COCN1COCN=C1NC#N	> 100 µM	> 100 µM	> 100 µM	> 100 µM	> 100 µM	> 100 µM	> 100 µM	> 100 µM	> 100 µM	–	–	–	–	–	–
CN(C)CCNC(=O)c1cccc2cc3c(Cl)cccc3nc12	–	7.32 µM	6.37 µM	6.68 µM	4.75 µM	8.26 µM	> 21.8 µM	3.99 µM	4.46 µM	–	–	–	–	–	–
COc1ccc2c3c([nH]c2c1[N+](=O)[O-])C(C)N(Cc1ccccc1)CC3 (stereo not given)	> 100 µM	> 100 µM	> 100 µM	> 100 µM	> 100 µM	> 100 µM	> 100 µM	14.5 µM	> 100 µM	–	–	–	–	–	–
Nc1ccc(C(=O)N/C(=C\c2cccc([N+](=O)[O-])c2)c2nc3[nH]c(=S)[nH]c(=O)c3[nH]2)cc1	> 100 µM	> 93.1 µM	> 100 µM	> 100 µM	> 100 µM	> 100 µM	> 100 µM	> 100 µM	> 100 µM	–	–	–	–	–	> 89.5 µM
CCOC(=O)C(=O)CC1=Nc2ccccc2SC(c2cccc(C)c2)C1 (stereo not given)	31.9 µM	34.6 µM	35.7 µM	31.8 µM	32.2 µM	32.4 µM	54 µM	33.2 µM	34.1 µM	–	–	–	–	–	–
O=C1N2Cc3c4ccc5c3CN3C(=O)N6Cc7c(ccc(c7CN1C6(c1ccccc1)C23c1ccccc1)OCCOCCNCCOCCO4)OCCOCCNCCOCCO5 (stereo not given)	53.7 µM	> 100 µM	91.3 µM	> 100 µM	> 100 µM	> 100 µM	> 100 µM	69 µM	> 100 µM	–	–	–	–	–	–
c1ccc(C2OC3(CCC[C@H]4C[C@H]43)O[C@H]2c2ccccc2)cc1 (stereo not given in full)	–	> 100 µM	> 100 µM	> 100 µM	> 100 µM	> 100 µM	74.7 µM	77.7 µM	> 100 µM	–	–	–	–	–	–
N/C(=N\N=C\c1ccc(C(F)(F)F)cc1)NO	> 100 µM	–	–	–	–	> 100 µM	38.1 µM	> 100 µM	> 100 µM	–	–	–	–	–	–
